We go through seven compounds from patent US8609836B2, “4-aryl-2-anilino-pyrimidines” (Janssen Pharmaceutica NV, priority 2008, dated 2013).

One experiment has as its system MDA-MB-231. Nature of the experiment: Cellular proliferation assay (Alamar blue), MDA-MB-231. It counts as cell-based. The conditions noted are these: Homo sapiens, 10% FCS, 72 hours with compound, Alamar blue 24 h, read-out: MDA/MB231 (cellular proliferation assay, Table 4) (converted). The method in brief: (§1)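 24 h seeding without compound, 10% FCS, 37° C/5% CO2; 72 h compound; Alamar blue (resazurin 9 μg/ml, ferro-/ferricyanide 90 μM) 4 h HCT-116, 6 h U87-MG, 24 h A2780/MDA-MB-231; fluorescence 544/590 nm vs control cells.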

The next experiment has as its target PLK1 T210D (h) (Homo sapiens, UniProt P53350, T210D). Nature of the experiment: PLK1 human kinase inhibition, SPA. It counts as biochemical. The conditions noted are these: read-out: PLK1 pIC50 (converted). In outline: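 Radiometric SPA with PLK1 T210D (0.125 ng/ml) in 50 mM Hepes pH 8.0, 2 mM MnCl2, 1 mM DTT, 2 μM biotinylated peptide, 0.1 μM ATP plus 2 nM [γ-33P]ATP. 40 min at room temperature, EDTA stop. Phosphorylated substrate captured on streptavidin PVT beads, scintillation imaged.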

For the next experiment, the target named is CDK4/CyclinD1 (h) (Homo sapiens, UniProt P11802). Nature of the experiment: CDK4/CyclinD1 human kinase inhibition, SPA with GST-pRb substrate. Format: biochemical. Particulars: read-out: CDK4 pIC50 (converted). As to the method: The in vitro inhibition of a panel of kinases was assessed using either the scintillation proximity assay (SPA) as described by Cook, N. D. et al., Advances in Experimental Medicine and Biology (1991), 36; p. 525-528.
Sequence of CDK4/CyclinD1 (h) (P11802 whole entry): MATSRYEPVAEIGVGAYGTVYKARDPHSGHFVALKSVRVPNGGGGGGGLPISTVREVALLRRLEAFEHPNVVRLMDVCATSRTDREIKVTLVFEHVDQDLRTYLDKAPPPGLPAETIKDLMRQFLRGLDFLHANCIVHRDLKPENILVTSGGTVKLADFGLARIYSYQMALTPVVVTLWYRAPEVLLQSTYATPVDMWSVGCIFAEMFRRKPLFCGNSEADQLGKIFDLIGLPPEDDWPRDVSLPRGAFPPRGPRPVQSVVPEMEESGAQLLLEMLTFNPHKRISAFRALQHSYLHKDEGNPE
Sequence of CDK4/CyclinD1 (h) (P24385 whole entry partner): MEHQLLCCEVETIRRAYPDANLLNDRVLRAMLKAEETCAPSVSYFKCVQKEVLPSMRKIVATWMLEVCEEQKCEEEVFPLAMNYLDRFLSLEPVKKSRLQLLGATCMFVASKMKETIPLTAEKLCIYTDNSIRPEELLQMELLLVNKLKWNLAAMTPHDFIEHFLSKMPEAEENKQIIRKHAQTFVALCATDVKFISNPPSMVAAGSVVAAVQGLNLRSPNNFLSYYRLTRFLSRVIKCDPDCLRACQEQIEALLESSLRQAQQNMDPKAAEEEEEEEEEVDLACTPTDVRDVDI
In the SPA technology the activity of the kinase of interest is measured using an appropriate biotinylated substrate that is incubated with the aforementioned kinase protein in the presence of (^33P) radiolabeled ATP. (^33P) Phosphorylation of the substrate is subsequently measured through binding of the phosphorylated substrate to streptavidine coated beads that are based on the scintillant poly(vinyl toluene) (PVT-Beads). The scintillation intensity is detected by imaging on Leadseeker.
All kinases are pre-diluted to a 10× working concentration prior to addition into the assay. The composition of the dilution buffer for each kinase is detailed below.
In a final reaction volume of 30 μl, CDK4/CyclinD1 (h) (2.5 μg/ml) is incubated with 50 mM Hepes pH 7.5, 8 mM NaF, 20 mM MgCl2, 1 mM DTT, 40 μg/ml of substrate GST-pRb, 2 nM [γ-^33P-ATP] (6.0 μCi/ml). After incubation of 60 minutes at room temperature, the reaction is stopped by addition of 40 μL of stop solution containing 8.7 mM EDTA, 0.17% Triton X-100, 25 mg/ml Glutathion SPA Beads (GE-healthcare). The plate is centrifuged and read for Scintillation topcount analyzer.

Another experiment has as its target AuroraB (h) (Homo sapiens, UniProt Q96GD4). Briefly: Aurora-B human kinase inhibition, SPA. It counts as biochemical. The conditions noted are these: read-out: AuroraB pIC50 (converted). The method in brief:
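SPA with biotinylated peptide (3 μM) in 60 mM Hepes pH 7.5, Mg/Mn 3 mM each, 0.5 μM ATP plus [γ-33P]ATP, AuroraB at 0.5 μg/ml. The reaction runs 60 min at room temperature and is stopped with EDTA and streptavidin PVT beads. 33P-substrate is read by scintillation imaging.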

In another experiment the target is PLK2 (h) (Homo sapiens, UniProt Q9NYY3). Nature of the experiment: PLK2 human kinase inhibition, SPA. It counts as biochemical. The conditions noted are these: read-out: PLK2 pIC50 (converted). In outline: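 SPA read on Leadseeker: PLK2 (30 μg/ml) with 2 μM biotinylated peptide, 0.1 μM ATP plus 2 nM [γ-33P]ATP in 50 mM Hepes pH 8.0, 2 mM MnCl2, 1 mM DTT. Reaction ran 20 min at room temperature, then EDTA stop and streptavidin PVT beads.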
Sequence of PLK2 (h) (Q9NYY3 whole entry): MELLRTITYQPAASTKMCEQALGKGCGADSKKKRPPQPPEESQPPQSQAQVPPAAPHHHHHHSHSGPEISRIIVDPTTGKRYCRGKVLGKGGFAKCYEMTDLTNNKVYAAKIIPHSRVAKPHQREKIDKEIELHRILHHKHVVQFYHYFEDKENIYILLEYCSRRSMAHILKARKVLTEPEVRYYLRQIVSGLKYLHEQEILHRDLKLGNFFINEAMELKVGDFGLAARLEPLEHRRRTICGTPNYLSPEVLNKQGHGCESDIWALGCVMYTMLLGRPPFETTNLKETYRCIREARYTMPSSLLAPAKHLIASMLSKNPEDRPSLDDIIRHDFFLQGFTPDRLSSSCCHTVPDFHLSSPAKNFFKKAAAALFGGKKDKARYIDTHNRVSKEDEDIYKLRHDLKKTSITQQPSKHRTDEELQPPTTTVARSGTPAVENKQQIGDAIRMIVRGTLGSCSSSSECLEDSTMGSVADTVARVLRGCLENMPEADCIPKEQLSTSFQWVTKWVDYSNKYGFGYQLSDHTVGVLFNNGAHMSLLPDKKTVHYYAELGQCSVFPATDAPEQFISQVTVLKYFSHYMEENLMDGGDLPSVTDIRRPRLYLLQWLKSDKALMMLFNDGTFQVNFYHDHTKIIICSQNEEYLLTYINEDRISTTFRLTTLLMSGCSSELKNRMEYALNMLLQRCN

Another experiment relates to H1299. Briefly: Cellular proliferation assay (Alamar blue), H1299. Format: cell-based. Particulars: Homo sapiens, NCI-H1299; 10% FCS; 72 hours with compound; Alamar blue 4 h. In outline:
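This proliferation assay on NCI-H1299 cells used an initial 24-hour compound-free incubation after seeding, followed by 72 hours of compound treatment with 10% FCS serum at 37° C. and 5% (v/v) CO2. Viable cells were quantified by a 4 h Alamar blue incubation and fluorescent plate reading at 544 nm/590 nm, and effects were expressed relative to control cells.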

Another experiment concerns the target CDK1/CyclinB (h) (Homo sapiens, UniProt P06493). Nature of the experiment: CDK1/CyclinB human kinase inhibition, Invitrogen's FRET assay (Z'lyte). It counts as biochemical. Particulars: read-out: CDK1 pIC50 (converted). The method in brief: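 Z'lyte FRET assay: human CDK1/CyclinB (0.2 μg/ml) with 2 μM Ser/Thr peptide 12 and 10 μM ATP in 50 mM Hepes pH 7.5, MgCl2, EGTA, Brij-35, 60 min at room temperature. Protease development 60 min, then emission ratio 460/538 nm read with excitation at 390 nm.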

A further experiment addresses PLK3 (h) (Homo sapiens, UniProt Q9H4B4). Nature of the experiment: PLK3 human kinase inhibition, SPA. Particulars: read-out: PLK3 pIC50 (converted). It counts as biochemical. In outline:
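SPA: PLK3 (h) at 30 μg/ml with 2 μM biotinylated peptide, 0.1 μM ATP plus 2 nM [γ-33P]ATP in 50 mM Hepes pH 8.0, 2 mM MnCl2 and 1 mM DTT. Incubated 20 min at room temperature, then stopped with EDTA and streptavidin PVT beads. Scintillation imaged on Leadseeker.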

In the next experiment the target is GSK3β (h) (Homo sapiens, UniProt P49841). Briefly: GSK-3β human kinase inhibition, SPA. The conditions noted are these: read-out: GSK3b pIC50 (converted). It counts as biochemical. The method in brief: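 Scintillation proximity assay: GSK3β (1 μg/ml) with 1 μM biotinylated peptide, 1 μM ATP plus [γ-33P]ATP in Tris pH 7.4, MgCl2, DTT. 60 min at room temperature, stopped with EDTA and streptavidin PVT beads; phosphorylation read by Leadseeker imaging.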
Sequence of GSK3β (h) (P49841 whole entry): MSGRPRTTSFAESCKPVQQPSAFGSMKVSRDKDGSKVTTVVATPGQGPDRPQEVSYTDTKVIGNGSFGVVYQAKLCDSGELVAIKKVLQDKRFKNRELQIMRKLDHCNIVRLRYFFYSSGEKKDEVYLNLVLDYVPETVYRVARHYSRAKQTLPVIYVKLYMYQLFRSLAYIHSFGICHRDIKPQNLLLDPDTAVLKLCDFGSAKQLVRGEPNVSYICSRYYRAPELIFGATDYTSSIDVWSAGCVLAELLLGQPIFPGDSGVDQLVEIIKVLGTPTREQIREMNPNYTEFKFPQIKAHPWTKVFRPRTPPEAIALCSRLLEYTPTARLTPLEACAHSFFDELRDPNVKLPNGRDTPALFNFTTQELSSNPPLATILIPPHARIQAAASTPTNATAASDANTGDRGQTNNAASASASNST

In the next experiment the test system is HCT-116. Briefly: Cellular proliferation assay (Alamar blue), HCT-116. Format: cell-based. Particulars: Homo sapiens, 10% FCS, 72 hours with compound, Alamar blue 4 h. The method in brief: as §1
A further experiment has as its target PLK4 (h) (Homo sapiens, UniProt O00444). Nature of the experiment: PLK-4 human kinase inhibition, scintillation proximity assay (SPA). It counts as biochemical. The conditions noted are these: read-out: PLK4 pIC50 (converted).
A further experiment deals with U87-MG. Briefly: Cellular proliferation assay (Alamar blue), U87-MG. It counts as cell-based. The conditions noted are these: Homo sapiens, U-87 MG; 10% FCS; 72 hours with compound; Alamar blue 6 h; read-out: U87-MG (cellular proliferation assay, Table 4) (converted). In outline:
as §1

A further experiment relates to A2780. Briefly: Cellular proliferation assay (Alamar blue), A2780. It counts as cell-based. The conditions noted are these: Homo sapiens, 10% FCS, 72 hours with compound, Alamar blue 24 h, read-out: A2780 (cellular proliferation assay, Table 4) (converted). In outline:
as §1

Some results are limits rather than exact numbers.

Sequence of PLK4 (h) (O00444 whole entry): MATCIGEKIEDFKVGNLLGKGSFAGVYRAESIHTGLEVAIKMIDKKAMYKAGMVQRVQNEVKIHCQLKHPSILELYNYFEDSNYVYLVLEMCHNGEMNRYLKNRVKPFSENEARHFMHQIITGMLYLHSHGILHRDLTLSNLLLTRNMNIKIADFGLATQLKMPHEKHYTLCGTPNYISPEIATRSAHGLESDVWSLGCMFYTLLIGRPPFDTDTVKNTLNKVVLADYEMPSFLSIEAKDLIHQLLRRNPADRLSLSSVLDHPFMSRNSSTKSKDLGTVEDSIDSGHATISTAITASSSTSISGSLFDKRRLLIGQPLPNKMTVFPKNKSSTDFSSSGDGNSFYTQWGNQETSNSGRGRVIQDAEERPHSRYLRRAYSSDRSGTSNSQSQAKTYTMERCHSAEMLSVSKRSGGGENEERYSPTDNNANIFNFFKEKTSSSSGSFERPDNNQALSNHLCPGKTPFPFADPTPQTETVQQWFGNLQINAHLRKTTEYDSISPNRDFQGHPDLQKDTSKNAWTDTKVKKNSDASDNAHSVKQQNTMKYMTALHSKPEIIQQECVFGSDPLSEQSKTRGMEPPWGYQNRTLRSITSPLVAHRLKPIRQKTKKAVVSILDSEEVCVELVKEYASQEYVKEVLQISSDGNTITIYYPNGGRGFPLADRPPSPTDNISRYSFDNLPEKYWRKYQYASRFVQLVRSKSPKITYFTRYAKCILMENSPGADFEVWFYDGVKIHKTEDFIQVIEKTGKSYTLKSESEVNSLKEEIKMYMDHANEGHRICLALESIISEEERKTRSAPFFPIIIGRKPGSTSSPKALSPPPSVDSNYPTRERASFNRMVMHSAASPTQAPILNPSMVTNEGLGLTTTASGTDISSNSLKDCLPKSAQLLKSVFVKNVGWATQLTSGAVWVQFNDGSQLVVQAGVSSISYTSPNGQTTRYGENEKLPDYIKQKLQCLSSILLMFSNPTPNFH
Sequence of CDK1/CyclinB (h) (P06493 whole entry): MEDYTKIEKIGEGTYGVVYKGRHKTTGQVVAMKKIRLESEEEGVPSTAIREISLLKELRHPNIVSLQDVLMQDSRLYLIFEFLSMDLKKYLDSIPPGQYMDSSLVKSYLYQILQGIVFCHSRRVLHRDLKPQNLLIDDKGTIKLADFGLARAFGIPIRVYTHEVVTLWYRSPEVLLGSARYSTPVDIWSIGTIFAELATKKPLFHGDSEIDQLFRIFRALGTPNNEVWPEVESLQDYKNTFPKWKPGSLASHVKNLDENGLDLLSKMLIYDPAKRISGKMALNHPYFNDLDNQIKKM
Sequence of CDK1/CyclinB (h) (P14635 whole entry partner): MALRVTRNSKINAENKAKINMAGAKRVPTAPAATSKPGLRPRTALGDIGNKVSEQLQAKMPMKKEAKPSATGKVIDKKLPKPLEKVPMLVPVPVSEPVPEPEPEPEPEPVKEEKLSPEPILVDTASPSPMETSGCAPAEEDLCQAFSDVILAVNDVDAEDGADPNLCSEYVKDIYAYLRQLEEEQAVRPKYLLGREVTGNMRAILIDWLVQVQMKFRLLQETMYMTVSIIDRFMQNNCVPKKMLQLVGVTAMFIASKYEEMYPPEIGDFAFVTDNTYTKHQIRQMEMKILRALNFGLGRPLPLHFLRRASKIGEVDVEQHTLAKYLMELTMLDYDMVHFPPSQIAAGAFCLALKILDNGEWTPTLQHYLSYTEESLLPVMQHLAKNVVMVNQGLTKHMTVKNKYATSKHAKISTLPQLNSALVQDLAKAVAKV
Sequence of PLK3 (h) (Q9H4B4 whole entry): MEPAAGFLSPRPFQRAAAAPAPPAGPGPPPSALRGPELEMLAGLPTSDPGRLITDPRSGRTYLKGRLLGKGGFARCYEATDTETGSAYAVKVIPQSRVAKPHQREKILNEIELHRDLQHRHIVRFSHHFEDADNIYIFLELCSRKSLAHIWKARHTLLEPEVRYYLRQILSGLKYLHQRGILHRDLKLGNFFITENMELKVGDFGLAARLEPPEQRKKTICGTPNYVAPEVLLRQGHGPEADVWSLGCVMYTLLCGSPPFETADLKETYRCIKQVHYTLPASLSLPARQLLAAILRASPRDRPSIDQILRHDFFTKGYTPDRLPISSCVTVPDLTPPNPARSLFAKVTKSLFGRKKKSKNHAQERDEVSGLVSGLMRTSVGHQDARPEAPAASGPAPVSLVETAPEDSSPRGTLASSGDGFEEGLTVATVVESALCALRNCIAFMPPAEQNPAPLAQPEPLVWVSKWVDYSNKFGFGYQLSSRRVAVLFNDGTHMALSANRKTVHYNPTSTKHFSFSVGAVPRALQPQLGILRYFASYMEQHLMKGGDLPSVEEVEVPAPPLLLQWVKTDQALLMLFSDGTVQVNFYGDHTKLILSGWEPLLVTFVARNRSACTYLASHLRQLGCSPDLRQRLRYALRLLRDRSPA
Sequence of AuroraB (h) (Q96GD4 whole entry): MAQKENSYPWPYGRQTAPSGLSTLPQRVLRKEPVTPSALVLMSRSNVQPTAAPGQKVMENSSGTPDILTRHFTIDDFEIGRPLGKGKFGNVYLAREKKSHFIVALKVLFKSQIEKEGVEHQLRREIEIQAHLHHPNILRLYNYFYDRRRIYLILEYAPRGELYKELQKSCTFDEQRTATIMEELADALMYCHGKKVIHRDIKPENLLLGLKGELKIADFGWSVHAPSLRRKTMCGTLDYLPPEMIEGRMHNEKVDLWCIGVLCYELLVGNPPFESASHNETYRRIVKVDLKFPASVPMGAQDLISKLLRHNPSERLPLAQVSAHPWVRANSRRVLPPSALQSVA
Sequence of PLK1 T210D (h) (P53350 whole entry T210D): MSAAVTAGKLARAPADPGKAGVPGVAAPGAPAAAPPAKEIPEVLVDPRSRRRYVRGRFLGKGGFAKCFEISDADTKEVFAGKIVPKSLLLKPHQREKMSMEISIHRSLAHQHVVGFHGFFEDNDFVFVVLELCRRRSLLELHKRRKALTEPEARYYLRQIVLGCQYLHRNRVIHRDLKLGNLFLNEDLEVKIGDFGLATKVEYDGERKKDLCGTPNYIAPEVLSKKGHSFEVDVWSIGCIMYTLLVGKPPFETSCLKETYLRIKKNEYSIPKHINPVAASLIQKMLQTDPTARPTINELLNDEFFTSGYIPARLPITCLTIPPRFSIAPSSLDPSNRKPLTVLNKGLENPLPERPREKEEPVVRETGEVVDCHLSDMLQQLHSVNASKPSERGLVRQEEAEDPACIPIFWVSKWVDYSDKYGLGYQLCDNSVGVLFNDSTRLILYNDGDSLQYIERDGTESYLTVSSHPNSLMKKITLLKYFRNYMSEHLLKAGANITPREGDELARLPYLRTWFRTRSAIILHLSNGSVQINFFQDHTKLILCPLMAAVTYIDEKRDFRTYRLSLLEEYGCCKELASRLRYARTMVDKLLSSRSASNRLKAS

Take `O=C1CN2CCN(CC2)Cc2cc(ccc2N2CCOCC2)Nc2nccc(n2)-c2ccc(cc2)CNCCN1` [Compound 125]: the IC50 with MDA-MB-231, at PLK1 T210D (h), at CDK4/CyclinD1 (h), on AuroraB (h), on PLK2 (h) and in the experiment on H1299 was > 10 µM throughout. Moreover, the IC50 was > 10 µM at CDK1/CyclinB (h); > 10 µM at PLK3 (h); > 10 µM at GSK3β (h); > 10 µM in the experiment on HCT-116; 0.692 µM on PLK4 (h).
`COc1ccc2cc1CNCCCNC(=O)C1CCN(CC1)Cc1cc(ccc1N1CCOCC1)Nc1nccc-2n1` [Compound 3]: the IC50 with MDA-MB-231 is > 10 µM; at PLK1 T210D (h), > 10 µM; at CDK4/CyclinD1 (h) it was > 10 µM; on AuroraB (h), 1.55 µM; on PLK2 (h), > 10 µM; in the experiment with H1299, > 10 µM. For the same compound, the IC50 is > 10 µM at CDK1/CyclinB (h); > 10 µM on PLK3 (h); > 10 µM at GSK3β (h); > 10 µM in the experiment with HCT-116; 0.0871 µM on PLK4 (h).
As to `COc1cc2cc(c1)Nc1nccc(n1)-c1ccc(cc1)CN(C)CCCNC(=O)CN1CCN(CC1)C2` [Compound 133], the IC50 is > 10 µM in the experiment on MDA-MB-231; 8.91 µM in the experiment on U87-MG; > 10 µM at PLK1 T210D (h); > 10 µM on CDK4/CyclinD1 (h); > 10 µM on AuroraB (h); > 3.02 µM on PLK2 (h). For the same compound, the IC50 in the experiment on H1299 is > 10 µM; on CDK1/CyclinB (h) it was > 10 µM; in the experiment on A2780, > 10 µM; at PLK3 (h), > 10 µM; in the experiment with HCT-116 it was 1.95 µM; on PLK4 (h) it was 1.51 µM.
With `COc1ccc2cc1CNCCCNC(=O)CN1CCN(CC1)Cc1cc(ccc1N1CCOCC1)Nc1nccc-2n1` [Compound 13], the IC50 is > 10 µM with MDA-MB-231; > 10 µM at PLK1 T210D (h); > 10 µM at CDK4/CyclinD1 (h); 4.17 µM at AuroraB (h); > 10 µM on PLK2 (h); > 10 µM in the experiment with H1299. Also, the IC50 is > 10 µM on CDK1/CyclinB (h); > 10 µM at PLK3 (h); > 10 µM at GSK3β (h); > 10 µM in the experiment with HCT-116; 0.49 µM at PLK4 (h).
As for `COc1ccc2cc1CN(C)CCNC(=O)C1CCN(CC1)Cc1cc(Br)cc(c1)Nc1nccc-2n1` [Compound 79], the IC50 with U87-MG was 7.59 µM; on PLK1 T210D (h), > 10 µM; on CDK4/CyclinD1 (h), > 10 µM; at AuroraB (h), > 10 µM; at PLK2 (h), > 10 µM; on CDK1/CyclinB (h) it was > 10 µM. Also, the IC50 with A2780 was 4.79 µM; on PLK3 (h), > 10 µM; at GSK3β (h) it was 0.832 µM; in the experiment with HCT-116, > 10 µM; on PLK4 (h), 5.25 µM.
Regarding `COc1ccc2cc1CN(C)CCCNC(=O)[C@@H]1CCCN1Cc1cc(Br)cc(c1)Nc1nccc-2n1` [Compound 170], the IC50 was 5.25 µM with U87-MG; > 10 µM at PLK1 T210D (h); > 10 µM on CDK4/CyclinD1 (h); 5.25 µM on AuroraB (h); > 10 µM on PLK2 (h); > 10 µM at CDK1/CyclinB (h). The IC50 is 4.17 µM in the experiment with A2780; > 10 µM at PLK3 (h); > 10 µM on GSK3β (h); > 10 µM with HCT-116; 3.89 µM on PLK4 (h).
On to `O=C1NCCNCc2ccc(cc2)-c2ccnc(n2)Nc2ccc(N3CCOCC3)c(c2)CN2CCC1CC2` [Compound 71], for which the IC50 with MDA-MB-231 was 6.76 µM; at PLK1 T210D (h), > 10 µM; on CDK4/CyclinD1 (h), > 10 µM; at AuroraB (h), > 10 µM; at PLK2 (h), > 10 µM; with H1299, > 10 µM. Moreover, the IC50 on CDK1/CyclinB (h) is 9.77 µM; on PLK3 (h), > 10 µM; on GSK3β (h), > 10 µM; in the experiment with HCT-116, 5.13 µM; on PLK4 (h), 1.7 µM.
